Measurements published in US9370503B1, “Compounds for treating ocular diseases” (priority 2015, dated 2016).

System: rat's retinal function after ischemic insult
Experiment: b-wave recovery of retinal function after ischemic insult (ERG)
Type: in vivo
Conditions: 1% instilled topically
Procedure: The retinal ischemia experiment has been described previously (Chiou et al., J. Ocular Pharmacol. 9:179-185, 1993, and Chiou et al., J. Ocular Pharmacol. 10:493-498, 1994). Electroretinograms (ERG) were carried out to assess the retinal function prior to and after the ischemic insult. ERGs were recorded using Ag/AgCl electrodes placed in contact with the cornea. One stainless steel needle was inserted subcutaneously between the two eyes as a reference electrode, and another needle was inserted subcutaneously into the neck as a ground electrode. A photostimulator (Grass PS22 Flash) was used to produce flashes of light 5 inches from the eye, and the ERG potentials were recorded on a polygraph. The ERG system was purchased from LKC Technologies, Inc. (Gaithersburg, Md.). A single flash (10 msec) of white light stimuli was used to evoke ERG a- and b-waves. Peak b-wave amplitudes were measured from the trough of the a-wave to the peak of the b-wave.
Long-Evans rats (200-250 g), dark-adapted at least 2 hours, were anaesthetized intramuscularly with ketamine (35 mg/kg) plus xylazine (5 mg/kg). Half of the initial dose was administrated at one hour intervals to maintain adequate anesthesia. The pupils were dilated with 1% tropicamide (50 μl) for ERG experiments. Retinal ischemia was produced by occlusion of the central retina and posterior ciliary arteries using a ligature placed around the optic nerve and posterior ciliary artery. The ligature was drawn tightly through a micropipette tip placed at the base of the eyeball socket to occlude the retinal vessels for 30 min. After 30 min of retinal ischemia, the ligature was liberated and the retinal arteries allowed to reperfuse. ERGs were measured at 30, 60, 90, 120, 180 and 240 min thereafter. The compounds and vehicle were administered topically before occlusion of the central retinal arteries.

CC(C)=CCC/C(C)=C/Cc1c([C@@H]2CC(=O)c3c(cc(O)c(CC=C(C)C)c3O)O2)ccc(O)c1O [Formula (II)]
potency in b-wave recovery: about the same as 1% (I)
duration of drug action on b-wave recovery (after drug application): 120 min
